Source: patent publication US20260226048A1, “MULTI-CYCLIC IRAK AND FLT3 INHIBITING COMPOUNDS AND USES THEREOF” (CHILDREN'S HOSPITAL MEDICAL CENTER, priority 2023, published 2026)

Columns and labels:
Conditions in all cases: 11-point 3-fold dilution
FLT3 ITD = biological target: T1, FLT3 ITD (Homo sapiens, UniProt P36888); assay: DiscoverX KINOMEscan competition binding assay, FLT3 ITD
T1 construct: fused on or other part: DNA tag for qPCR detection (kinase-tagged T7 phage, or made in HEK-293 cells and then tagged with DNA)
T1 sequence (P36888 1-993): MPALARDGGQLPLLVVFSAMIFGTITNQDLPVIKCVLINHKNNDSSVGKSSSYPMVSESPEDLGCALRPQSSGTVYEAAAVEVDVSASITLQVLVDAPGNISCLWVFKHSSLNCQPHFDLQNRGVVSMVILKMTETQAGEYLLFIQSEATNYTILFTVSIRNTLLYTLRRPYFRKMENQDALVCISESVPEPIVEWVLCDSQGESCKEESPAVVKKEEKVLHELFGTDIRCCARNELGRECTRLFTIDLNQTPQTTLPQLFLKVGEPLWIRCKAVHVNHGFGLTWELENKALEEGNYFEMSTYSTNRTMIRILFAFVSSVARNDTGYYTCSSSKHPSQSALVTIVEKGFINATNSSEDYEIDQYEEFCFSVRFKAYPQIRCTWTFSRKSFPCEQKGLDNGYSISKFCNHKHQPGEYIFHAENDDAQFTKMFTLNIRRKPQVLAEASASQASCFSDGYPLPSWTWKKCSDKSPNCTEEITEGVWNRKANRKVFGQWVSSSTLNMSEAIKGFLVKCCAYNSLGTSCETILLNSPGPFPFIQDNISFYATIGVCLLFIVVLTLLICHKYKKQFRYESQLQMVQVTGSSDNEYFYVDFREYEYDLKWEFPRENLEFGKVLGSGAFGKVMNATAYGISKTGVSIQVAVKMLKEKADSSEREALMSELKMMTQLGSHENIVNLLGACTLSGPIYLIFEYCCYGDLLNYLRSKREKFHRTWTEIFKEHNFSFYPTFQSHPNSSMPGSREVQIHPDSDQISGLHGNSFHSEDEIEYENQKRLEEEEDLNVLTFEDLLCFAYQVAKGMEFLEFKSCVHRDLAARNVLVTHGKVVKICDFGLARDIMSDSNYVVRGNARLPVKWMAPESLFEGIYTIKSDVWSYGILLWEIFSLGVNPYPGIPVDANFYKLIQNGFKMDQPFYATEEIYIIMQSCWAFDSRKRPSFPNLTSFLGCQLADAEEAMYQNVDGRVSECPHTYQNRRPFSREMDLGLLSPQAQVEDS
Source text: (§1) […]. […] As a result, the data report thermodynamic interaction affinities (Kd values), rather than IC50 values that are dependent on ATP concentrations. The assay uses a DNA-tagged version of the protein kinase, and an immobilized ligand bound to a solid support. Compounds that directly or indirectly prevent kinase binding to the immobilized ligand reduce the amount of kinase captured on the solid support, which is detected using an ultra-sensitive qPCR method. Affinity constants reported from the assay have been reported to be independent of the immobilized ligand used that is coupled to the solid support (See supplemental information in Fabian, M. A. et. al., (2005) Nat. Biotechnol. 23, 329-336; Wodicka, L. M. et. al., (2010) Chem. Biol. 17, 1241-1249.)
(§2) Kinase-tagged T7 phage strains were prepared in an E. coli host derived from the BL21 strain. E. coli were grown to log-phase and infected with T7 phage and incubated with shaking at 32° C. until lysis. The lysates were centrifuged and filtered to remove cell debris. The remaining kinases were produced in HEK-293 cells and subsequently tagged with DNA for qPCR detection. Streptavidin-coated magnetic beads were treated with biotinylated small molecule ligands for 30 minutes at room temperature to generate affinity resins for kinase assays. The liganded beads were blocked with excess biotin and washed with blocking buffer (SeaBlock (Pierce), 1% BSA, 0.05% Tween 20, 1 mM DTT) to remove unbound ligand and to reduce non-specific binding. […] Test compounds were prepared as 111× stocks in 100% DMSO. Kds were determined using an 11-point 3-fold compound dilution series with three DMSO control points. All compounds for Kd measurements are distributed by acoustic transfer (non-contact dispensing) in 100% DMSO. The compounds were then diluted directly into the assays such that the final concentration of DMSO was 0.9%. All reactions were performed in polypropylene 384-well plates. Each was a final volume of 0.02 mL. […] The kinase concentration in the eluates was measured by qPCR.
(§3) Binding constants (Kds) were calculated with a standard dose-response curve using the Hill equation. The Hill Slope was set to −1. Curves were fitted using a non-linear least square fit with the Levenberg-Marquardt algorithm.

IRAK1 = biological target: T2, IRAK1 (Homo sapiens, UniProt P51617); assay: DiscoverX KINOMEscan competition binding assay, IRAK1
T2 construct: purchased Reaction Biology (RBC HotSpot)
T2 sequence (P51617 whole entry): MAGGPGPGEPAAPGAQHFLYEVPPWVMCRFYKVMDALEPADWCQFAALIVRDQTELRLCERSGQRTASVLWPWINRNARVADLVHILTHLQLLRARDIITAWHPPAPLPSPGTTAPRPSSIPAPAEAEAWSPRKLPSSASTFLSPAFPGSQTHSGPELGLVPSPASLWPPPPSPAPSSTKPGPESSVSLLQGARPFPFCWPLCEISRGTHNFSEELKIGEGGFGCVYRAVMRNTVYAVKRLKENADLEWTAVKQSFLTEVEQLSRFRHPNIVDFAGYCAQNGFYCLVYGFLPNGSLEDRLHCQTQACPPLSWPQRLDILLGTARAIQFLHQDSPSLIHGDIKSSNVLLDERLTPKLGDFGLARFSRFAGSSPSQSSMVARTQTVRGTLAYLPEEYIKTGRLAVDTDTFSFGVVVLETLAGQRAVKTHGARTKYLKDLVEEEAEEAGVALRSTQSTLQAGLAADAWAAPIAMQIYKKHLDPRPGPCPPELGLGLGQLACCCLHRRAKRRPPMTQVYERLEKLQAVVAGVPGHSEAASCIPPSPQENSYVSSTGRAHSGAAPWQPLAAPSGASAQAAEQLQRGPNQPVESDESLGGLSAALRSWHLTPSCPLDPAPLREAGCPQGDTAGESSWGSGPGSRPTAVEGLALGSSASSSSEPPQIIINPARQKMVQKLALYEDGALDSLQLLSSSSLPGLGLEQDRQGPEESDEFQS
Source text: as §1, §2, §3

FLT3 = biological target: T3, FLT3 (Homo sapiens, UniProt P36888); assay: DiscoverX KINOMEscan competition binding assay, FLT3; set-up: purchased Reaction Biology (RBC HotSpot)
T3 sequence (P36888 27-993): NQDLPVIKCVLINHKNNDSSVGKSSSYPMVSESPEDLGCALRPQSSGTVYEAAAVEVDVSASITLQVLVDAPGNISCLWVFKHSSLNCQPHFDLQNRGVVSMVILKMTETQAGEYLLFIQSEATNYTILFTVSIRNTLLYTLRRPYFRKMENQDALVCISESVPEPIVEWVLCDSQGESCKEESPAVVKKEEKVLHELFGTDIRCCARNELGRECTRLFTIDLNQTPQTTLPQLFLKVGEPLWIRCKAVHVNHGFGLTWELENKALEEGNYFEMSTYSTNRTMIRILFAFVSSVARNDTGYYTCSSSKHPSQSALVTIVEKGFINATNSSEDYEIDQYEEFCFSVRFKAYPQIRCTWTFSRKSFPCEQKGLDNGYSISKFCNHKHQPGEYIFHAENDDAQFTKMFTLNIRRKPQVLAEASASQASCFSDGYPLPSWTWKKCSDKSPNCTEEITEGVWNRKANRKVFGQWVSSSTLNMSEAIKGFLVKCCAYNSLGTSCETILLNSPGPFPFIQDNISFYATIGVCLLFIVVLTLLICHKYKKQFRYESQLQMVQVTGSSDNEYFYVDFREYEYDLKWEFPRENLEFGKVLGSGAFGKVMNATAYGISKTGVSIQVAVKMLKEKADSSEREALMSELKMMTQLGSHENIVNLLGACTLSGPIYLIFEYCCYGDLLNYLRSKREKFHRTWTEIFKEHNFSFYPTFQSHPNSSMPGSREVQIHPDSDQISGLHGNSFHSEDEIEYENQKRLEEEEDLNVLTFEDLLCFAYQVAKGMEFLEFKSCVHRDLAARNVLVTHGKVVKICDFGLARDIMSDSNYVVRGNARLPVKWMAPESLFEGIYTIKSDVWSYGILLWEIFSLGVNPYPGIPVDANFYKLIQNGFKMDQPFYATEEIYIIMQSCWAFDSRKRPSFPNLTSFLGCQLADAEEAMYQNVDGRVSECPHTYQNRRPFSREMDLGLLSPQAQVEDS
Source text: as §1, §2, §3

Compound | Kd (FLT3 ITD) | Kd (IRAK1) | Kd (FLT3)
COc1cc2ncc(-c3nc(N[C@H]4CNCC[C@@H]4F)ncc3F)n2nc1C1CC1 [Compound 1a, 4-(6-cyclopropyl-7-methoxyimidazo[1,2-b]pyridazin-3-yl)-5-fluoro-N-((3S,4S)-4-fluoropiperidin-3-yl)pyrimidin-2-amine] | 0.21 nM | < 0.17 nM | < 0.17 nM
FC(F)COc1cc2ncc(-c3ccnc(N[C@H]4CNCC[C@@H]4F)n3)n2nc1C1CC1 [Compound 4a, 4-(6-cyclopropyl-7-(2,2-difluoroethoxy)imidazo[1,2-b]pyridazin-3-yl)-N-((3 S,4S)-4-fluoropiperidin-3-yl)pyrimidin-2-amine] | 1.7 nM | 7.8 nM | < 0.17 nM
COc1cc2ncc(-c3nc(N[C@H]4CNCC[C@@H]4F)ncc3F)n2nc1C(C)(C)O [Compound 45a, 2-(3-(5-fluoro-2-(((3S,4S)-4-fluoropiperidin-3-yl)amino)pyrimidin-4-yl)-7-methoxyimidazo[1,2-b]pyridazin-6-yl)propan-2-ol] | < 0.17 nM | 1.6 nM | 1.1 nM
CC(C)(O)c1ccc2ncc(-c3nc(N[C@H]4CNCC[C@@H]4F)ncc3F)n2c1 [Compound 46a, 2-(3-(5-fluoro-2-(((3S,4S)-4-fluoropiperidin-3-yl)amino)pyrimidin-4-yl)imidazo[1,2-a]pyridin-6-yl)propan-2-ol] | 0.19 nM | 0.7 nM | 1.2 nM
COc1cc2ncc(-c3nc(N[C@H]4CNCC[C@@H]4F)ncc3F)n2nc1C1COC1 [Compound 92a, 5-fluoro-N-((3S,4S)-4-fluoropiperidin-3-yl)-4-(7-methoxy-6-(oxetan-3-yl)imidazo[1,2-b]pyridazin-3-yl)pyrimidin-2-amine] | 0.21 nM | 0.49 nM | < 0.17 nM
CC(C)(O)c1cn2c(-c3nc(N[C@H]4CNCC[C@@H]4F)ncc3F)cnc2cn1 [Compound 100a, 2-(3-(5-fluoro-2-(((3S,4S)-4-fluoropiperidin-3-yl)amino)pyrimidin-4-yl)imidazo[1,2-a]pyrazin-6-yl)propan-2-ol] | 2.7 nM | 4.5 nM | 16 nM
COc1cc2ncc(-c3nc(N[C@H]4CNCC[C@@H]4F)ncc3F)n2nc1N1CCCS1(=O)=O [Compound 112a, 2-(3-(5-fluoro-2-(((3S,4S)-4-fluoropiperidin-3-yl)amino)pyrimidin-4-yl)-7-methoxyimidazo[1,2-b]pyridazin-6-yl)isothiazolidine 1,1-dioxide] | 0.2 nM | 1.1 nM | < 0.17 nM
